Here are results for four molecules from patent publication US20070219178A1, “PREVENTIVE OR THERAPEUTIC AGENTS FOR MULTIPLE SCLEROSIS” (Eisai Co., Ltd., priority 2003, published 2007).

The test system of test [1] is experimental allergic encephalomyelitis (EAE) model. The experiment in a line: Experimental allergic encephalomyelitis (EAE) model, EAE scores. It is filed as in vivo, Male C57BL/6 mice. Conditions: MOG peptide-immunized mice; oral, 30 mg/kg in 0.5% MC, 10 ml/kg/administration, twice a day from post-immunization day 7; FIG. 1 and 2.
In test [2] the target is T1, Porcine kidney-derived DPP-IV (Sus scrofa, UniProt P22411).
T1 construct: Porcine kidney-derived DPP-IV was dissolved in a reaction buffer; from tissue; host or cells: porcine kidney
T1 sequence (P22411 whole entry): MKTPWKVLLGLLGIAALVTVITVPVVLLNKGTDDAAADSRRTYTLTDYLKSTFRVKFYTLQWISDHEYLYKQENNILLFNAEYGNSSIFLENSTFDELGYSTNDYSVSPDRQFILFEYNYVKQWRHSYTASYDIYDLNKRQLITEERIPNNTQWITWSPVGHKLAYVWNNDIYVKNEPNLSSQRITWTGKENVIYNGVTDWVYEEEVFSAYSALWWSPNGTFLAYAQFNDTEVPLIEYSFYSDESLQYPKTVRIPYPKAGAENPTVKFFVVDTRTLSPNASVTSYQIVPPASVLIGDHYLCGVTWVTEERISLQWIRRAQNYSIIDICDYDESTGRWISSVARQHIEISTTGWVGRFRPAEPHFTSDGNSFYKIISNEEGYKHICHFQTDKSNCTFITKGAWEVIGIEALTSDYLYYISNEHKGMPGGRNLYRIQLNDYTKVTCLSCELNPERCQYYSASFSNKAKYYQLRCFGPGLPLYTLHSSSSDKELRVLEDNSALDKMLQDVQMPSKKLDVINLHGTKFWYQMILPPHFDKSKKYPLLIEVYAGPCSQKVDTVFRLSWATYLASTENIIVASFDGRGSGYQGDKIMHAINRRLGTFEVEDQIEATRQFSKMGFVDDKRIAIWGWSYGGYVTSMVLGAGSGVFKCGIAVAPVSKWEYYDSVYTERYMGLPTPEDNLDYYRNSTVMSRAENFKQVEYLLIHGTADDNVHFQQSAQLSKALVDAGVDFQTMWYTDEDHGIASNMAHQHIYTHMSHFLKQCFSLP
The experiment in a line: DPPIV-inhibiting activity assay. Conditions: porcine kidney DPP-IV 10 mU/ml, Gly-Pro-p-nitroanilide 0.33 mM, 20 minutes, absorbance at 405 nm. The format is biochemical. How it is done: DPPIV-Inhibiting Activity Assay
Porcine kidney-derived DPP-IV was dissolved in a reaction buffer (50 mM Tris-HCl (pH 7.4)/0.1% BSA) at a concentration of 10 mU/ml. After 110 μl of this solution had been combined with 15 μl of an agent, the mixture was incubated at room temperature for 20 minutes. 25 μl of 2 mM Gly-Pro-p-nitroanilide was added (to a final concentration of 0.33 mM) to the solution to initiate the enzyme reaction. The reaction time was 20 minutes. 25 μl of IN phosphoric acid solution was added to the reaction solution to quench the reaction.

As usually defined, the IC50 is the concentration needed to halve the response being measured. A high value points to lower potency.

On to `CC#CCn1c(N2CCCC(N)C2)nc2cnn(C)c(=O)c21.O=C(O)C(F)(F)F` (stereo not shown) [Example 120, 2-(3-Aminopiperidin-1-yl)-3-(2-butynyl)-5-methyl-3,5-dihydroimidazo[4,5-d]pyridazin-4-one trifluoroacetate], for which the “effect on development of EAE symptoms compared to control group (MC solution)” value in test [1] is “definite suppressing effects”. The same measure, in the same setting: to `CC#CCn1c(N2CCNCC2)nc2nc(Oc3ccccc3C(N)=O)n(C)c(=O)c21` [Example 122, 2-[7-(2-Butynyl)-1-methyl-6-oxo-8-(piperazin-1-yl)-6,7-dihydro-1H-purin-2-yloxy]benzamide] belongs “definite suppressing effects”. As to “Methyl 2-[7-(2-butynyl)-1-methyl-6-oxo-8-(piperazin-1-yl)-6,7-dihydro-1H-purin-2-yloxy]phenylacetate trifluoroacetate [Example 4]”, half-maximal inhibition in test [2] (IC50) was put at 211 nM. Turning to `CC#CCn1c(N2CCNCC2)nc2c1c(=O)n(C)c(=O)n2C` [Compound 1X, 7-(2-butynyl)-1,3-dimethyl-8-(piperazin-1-yl)-3,7-dihydropurine-2,6-dione], in test [1], the “effect on development of EAE symptoms compared to control group (MC solution)” value is “definite suppressing effects”.
